Assay results published in PMC10534891, “Evaluation of 4-Aminoquinoline Hydrazone Analogues as Potential Leads for Drug-Resistant Malaria” (Molecules, 2023).
Read-outs that look alike come from different tables or passages of the source.

Tests used:
P. falciparum K1 strain [1] = assay: P. falciparum K1 asexual growth inhibition, 48 h, SYBR Green-based plate reader assay; format: cell-based, Plasmodium falciparum; details: Plasmodium falciparum, K1, 48 h, read-out: Plasmodium IC50 ± SE
Protocol: Sixteen 4-amino-6-methoxy-quinoline hydrazone compounds (see Figure S1, Supplementary Materials for full structures), with methyl and phenyl substituents at the 2-position (R = Me, Ph) and various substituents at R’ (Table 1), were tested for their antimalarial activities. A 1% parasitised culture at the trophozoite stage was treated with the compounds for 48 h at concentrations of 0.003050–200 µM (four-fold serial dilution) against the P. falciparum K1 strain, and the growth was measured using the SYBR Green-based plate reader assay.
In total, 1% of infected RBCs at the ring or trophozoites stage was exposed to nine dilutions (four-fold serial dilution) of compounds from 50 mM stock solutions in DMSO. A total of 100 µL of culture volume was added in 96-well plates with 100 µL drug dilutions. Plates were either incubated for 48 h or 72 h at 37 °C, 5% CO2, 5% O2 in N2. Following the incubation, 150 µL of the medium was carefully removed and 150 µL of the 5× SYBR Green solution (prepared by adding 2 µL of 10,000× SYBR Green in 4 mL of PBS) was added to each well. Plates were kept in the dark for 45 min. Fluorescence intensity was measured using a microplate reader (Genius Tecan) with an excitation of 485 nm and an emission of 535 nm.
IC50 values were determined using Graph Pad Prism 5.0. Values were calculated using non-linear regression by using log-transformed drug concentration plotted against dose–response. Parasitaemia was calculated and normalised relative to the response on the controls (cultures without drug).

P. falciparum K1 strain [2] = details: read-out: IC50 (published data); published value for comparison; cited from earlier work

For `CCN(CC)CCCC(C)Nc1ccnc2cc(Cl)ccc12` (centres unmarked) [Chloroquine, reference compound], the IC50 (P. falciparum K1 strain [1]) is given as 199 ± 40 nM and the IC50 (P. falciparum K1 strain [2]) is given as 255 ± 49 nM.
